According to US20230345946A1, “ANTIVIRAL SURFACES COMPRISING POLYOXOMETALATES AND ZINC MOLYBDATE” (FRIDA GROUP APS, priority 2020, published 2023):

Columns and labels:
coronaviruses [1] = assay: Killing of coronaviruses on treated surfaces versus a control surface; details: in 2 hours
Experimental: 88% more coronaviruses were killed on the treated surfaces than on a control surface, also in 2 hours.

coronaviruses [2] = assay: EN 14476 (Liquid Disinfectant Test); details: in 2 hours

Which results are given for “Paramolybdotungstate [Paramolybdotungstate Mo:W 1:1]”?
more coronaviruses killed on treated surfaces than on a control surface (coronaviruses [1]): 88%; log reduction of coronaviruses (coronaviruses [2]): 4 log
